According to ChEMBL document CHEMBL1201862, “PubChem BioAssay data set” (2004):
Where “and” joins values, the source holds several entries; their conditions need not be identical. Equal entries are not always repeated. Blank lines part the entries; values can stand above or below the compound they belong to. Calls of active or inactive are those of the source.

Key:
[1] = target: T1, Tyrosine-protein phosphatase non-receptor type 7 (Homo sapiens, UniProt P35236); assay: inhibitors of human HePTP phosphatase, […], biochemical, absorbance, leukemia target (AID 521); assay type: functional
T1 sequence (P35236 whole entry): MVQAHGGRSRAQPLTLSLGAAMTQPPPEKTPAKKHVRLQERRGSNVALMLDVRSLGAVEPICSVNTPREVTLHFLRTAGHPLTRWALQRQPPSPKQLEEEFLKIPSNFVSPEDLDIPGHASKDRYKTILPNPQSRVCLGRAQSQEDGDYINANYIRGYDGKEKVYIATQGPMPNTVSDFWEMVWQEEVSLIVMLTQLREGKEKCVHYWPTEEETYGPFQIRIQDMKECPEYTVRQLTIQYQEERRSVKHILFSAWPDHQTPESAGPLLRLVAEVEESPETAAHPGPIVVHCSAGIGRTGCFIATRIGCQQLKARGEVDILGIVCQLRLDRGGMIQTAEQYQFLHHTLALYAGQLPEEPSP

NADPH oxidase 1 = target: T2, NADPH oxidase 1 (Homo sapiens, UniProt Q9Y5S8); assay: Late-stage luminescence-based cell-based dose response assay to identify inhibitors of NADPH oxidase 1 (NOX1): Synthesized analogs 3.; assay type: functional
T2 sequence (Q9Y5S8 whole entry): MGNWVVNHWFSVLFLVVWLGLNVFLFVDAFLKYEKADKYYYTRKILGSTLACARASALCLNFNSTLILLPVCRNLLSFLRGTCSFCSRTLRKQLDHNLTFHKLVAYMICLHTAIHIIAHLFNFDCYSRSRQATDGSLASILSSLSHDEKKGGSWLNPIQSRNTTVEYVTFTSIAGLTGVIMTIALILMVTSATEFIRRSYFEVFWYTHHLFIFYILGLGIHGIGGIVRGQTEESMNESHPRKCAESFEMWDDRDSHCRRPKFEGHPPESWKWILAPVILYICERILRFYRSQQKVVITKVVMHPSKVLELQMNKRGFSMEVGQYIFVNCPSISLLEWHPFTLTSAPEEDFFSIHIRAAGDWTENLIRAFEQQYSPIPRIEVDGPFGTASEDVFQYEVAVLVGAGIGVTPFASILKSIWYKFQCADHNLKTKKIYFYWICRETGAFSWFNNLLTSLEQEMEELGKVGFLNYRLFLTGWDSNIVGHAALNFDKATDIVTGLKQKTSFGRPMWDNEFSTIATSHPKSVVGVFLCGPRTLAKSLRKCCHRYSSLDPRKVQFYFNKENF

[2] = target: Voltage-gated inwardly rectifying potassium channel KCNH2 (Homo sapiens, UniProt Q12809); assay: hERG protection from proarrhythmic block, potency, dose response, cell-based, thallium flux (AID 2121); assay type: ADME
Voltage-gated inwardly rectifying potassium channel KCNH2, sequence (Q12809 whole entry): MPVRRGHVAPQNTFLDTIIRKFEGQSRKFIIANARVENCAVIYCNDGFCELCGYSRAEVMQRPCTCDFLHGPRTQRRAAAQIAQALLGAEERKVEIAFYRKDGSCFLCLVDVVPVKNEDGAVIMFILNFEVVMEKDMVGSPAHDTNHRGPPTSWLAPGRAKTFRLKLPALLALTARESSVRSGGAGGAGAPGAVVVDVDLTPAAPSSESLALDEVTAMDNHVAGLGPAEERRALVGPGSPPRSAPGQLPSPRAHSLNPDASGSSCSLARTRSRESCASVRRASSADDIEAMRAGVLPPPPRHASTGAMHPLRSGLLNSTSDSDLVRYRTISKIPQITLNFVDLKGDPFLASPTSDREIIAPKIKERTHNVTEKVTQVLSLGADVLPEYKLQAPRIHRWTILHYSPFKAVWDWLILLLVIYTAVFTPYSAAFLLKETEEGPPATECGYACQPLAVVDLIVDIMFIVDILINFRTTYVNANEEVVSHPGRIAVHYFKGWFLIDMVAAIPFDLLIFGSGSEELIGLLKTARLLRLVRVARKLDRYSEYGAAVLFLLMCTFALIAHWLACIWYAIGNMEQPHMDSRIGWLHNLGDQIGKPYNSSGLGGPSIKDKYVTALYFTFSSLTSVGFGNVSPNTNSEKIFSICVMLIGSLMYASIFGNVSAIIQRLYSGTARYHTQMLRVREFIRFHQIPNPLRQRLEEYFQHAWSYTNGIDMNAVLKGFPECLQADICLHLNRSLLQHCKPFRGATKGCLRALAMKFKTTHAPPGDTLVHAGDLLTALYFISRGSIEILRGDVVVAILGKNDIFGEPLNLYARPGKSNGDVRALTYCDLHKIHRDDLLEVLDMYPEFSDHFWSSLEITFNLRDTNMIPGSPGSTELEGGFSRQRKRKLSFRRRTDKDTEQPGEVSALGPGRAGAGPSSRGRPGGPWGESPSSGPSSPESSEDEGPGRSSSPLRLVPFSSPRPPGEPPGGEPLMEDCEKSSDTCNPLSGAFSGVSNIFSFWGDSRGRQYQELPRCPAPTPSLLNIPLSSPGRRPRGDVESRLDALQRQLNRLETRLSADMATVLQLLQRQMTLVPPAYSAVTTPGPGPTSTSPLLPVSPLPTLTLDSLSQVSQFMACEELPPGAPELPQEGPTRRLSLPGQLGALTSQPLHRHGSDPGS

14-3-3 protein gamma = 14-3-3 protein gamma (Homo sapiens, UniProt P61981); assay: modulators of 14-3-3 gamma client binding – dose response (AID 711); assay type: functional
14-3-3 protein gamma, sequence (P61981 whole entry): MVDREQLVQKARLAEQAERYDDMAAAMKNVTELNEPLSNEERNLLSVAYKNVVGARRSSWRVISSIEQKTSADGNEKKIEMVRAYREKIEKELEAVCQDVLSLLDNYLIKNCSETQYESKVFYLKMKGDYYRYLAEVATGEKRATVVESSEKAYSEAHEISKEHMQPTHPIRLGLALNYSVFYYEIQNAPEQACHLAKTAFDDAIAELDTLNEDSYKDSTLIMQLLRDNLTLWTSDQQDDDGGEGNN

[3] = half-maximal inhibitory concentration for glucagon-like peptide-1 release, STC-1 cell line, dose-response (AID 1117345); assay type: functional, cell-based
[4] = Dose-response inhibition of insulin secretion in a rat insulinoma line at 5 mM glucose (AID 1117331); assay type: functional, cell-based; conditions: INS-1E
[5] = Glucagon-like peptide 1 release potency, NCI-H716 cell line, dose-response, half-maximal inhibitory concentration (AID 1117344); assay type: functional, cell-based
[6] = inhibitors of Vif binding to APOBEC3G peptide, primary screen, biochemical, TR-FRET, GST-Vif 1-94, biotin-A3G peptide, dose response retest (AID 1117319); assay type: functional;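 also: TR-FRET signal of purified GST-Vif binding a biotinylated A3G peptide; inhibitors lower the FRET signal by blocking Vif and A3G binding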
[7] = target: T3, Rac GTPase-activating protein 1 (Homo sapiens, UniProt Q9H0H5); assay: MgcRacGAP GTPase-activating activity inhibitors, confirmation, biochemical, ADP Hunter fluorescence, primary and confirmatory (AID 624330); assay type: functional
T3 sequence (Q9H0H5 whole entry): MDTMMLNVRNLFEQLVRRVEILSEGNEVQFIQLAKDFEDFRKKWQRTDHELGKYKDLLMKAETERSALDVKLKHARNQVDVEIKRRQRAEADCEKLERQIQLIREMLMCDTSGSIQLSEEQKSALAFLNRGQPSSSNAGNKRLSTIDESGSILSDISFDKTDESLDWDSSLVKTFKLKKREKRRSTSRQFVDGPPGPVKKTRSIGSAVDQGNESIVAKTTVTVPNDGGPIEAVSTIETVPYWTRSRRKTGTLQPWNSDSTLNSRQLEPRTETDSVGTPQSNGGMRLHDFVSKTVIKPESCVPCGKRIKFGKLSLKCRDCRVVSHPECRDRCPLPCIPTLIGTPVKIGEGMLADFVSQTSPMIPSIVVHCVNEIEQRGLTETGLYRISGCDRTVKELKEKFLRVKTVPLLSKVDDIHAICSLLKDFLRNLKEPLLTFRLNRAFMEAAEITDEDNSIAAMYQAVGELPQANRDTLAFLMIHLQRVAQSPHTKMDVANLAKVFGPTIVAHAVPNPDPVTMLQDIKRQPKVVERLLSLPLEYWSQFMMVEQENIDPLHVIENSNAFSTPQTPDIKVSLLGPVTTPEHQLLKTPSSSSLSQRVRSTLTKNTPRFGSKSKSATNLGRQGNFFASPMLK

Leucine aminopeptidase = target: T4, Leucine aminopeptidase (Plasmodium falciparum 3D7, UniProt Q8IL11); assay: P. falciparum M17LAP inhibitors, primary screen, biochemical, fluorogenic H-Leu-NHMec substrate, 1536-well (AID 1619); assay type: functional
T4 sequence (Q8IL11 whole entry): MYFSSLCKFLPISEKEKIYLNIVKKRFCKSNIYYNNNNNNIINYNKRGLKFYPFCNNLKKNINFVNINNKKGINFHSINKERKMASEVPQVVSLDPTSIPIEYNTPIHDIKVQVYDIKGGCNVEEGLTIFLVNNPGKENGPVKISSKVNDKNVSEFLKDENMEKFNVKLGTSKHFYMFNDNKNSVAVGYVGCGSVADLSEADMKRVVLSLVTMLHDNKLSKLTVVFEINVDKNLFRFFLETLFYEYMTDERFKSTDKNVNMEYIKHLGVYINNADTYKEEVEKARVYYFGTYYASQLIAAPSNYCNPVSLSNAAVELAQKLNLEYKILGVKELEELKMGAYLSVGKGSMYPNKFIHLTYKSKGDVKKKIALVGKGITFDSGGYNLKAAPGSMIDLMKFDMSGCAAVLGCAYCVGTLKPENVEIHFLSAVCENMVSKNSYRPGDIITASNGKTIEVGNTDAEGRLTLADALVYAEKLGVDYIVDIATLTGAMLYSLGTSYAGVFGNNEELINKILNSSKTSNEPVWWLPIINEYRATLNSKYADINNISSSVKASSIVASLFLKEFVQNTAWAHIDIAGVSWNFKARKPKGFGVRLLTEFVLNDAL

P388 = assay: cells; assay type: functional; conditions: Mus musculus
SN12K1 = assay: cells; assay type: functional; conditions: Homo sapiens
[8] = HeLa 2N DNA content increase, dose response, cell-based, IC50 (AID 1117349); assay type: functional
INS1 = assay: beta cell apoptosis inhibitors, cytokine rescue, dose response, luminescence, retest (AID 449756); assay type: functional, cell-based; conditions: Rattus norvegicus;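 also: cell death triggered by IL-1 beta plus TNF-alpha plus IFN-gamma mixture; protective hits raise ATP signal compared with cytokine alone wells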
[9] = target: T5, Sentrin-specific protease 8 (Homo sapiens, UniProt Q96LD8); assay type: functional
T5 sequence (Q96LD8 whole entry): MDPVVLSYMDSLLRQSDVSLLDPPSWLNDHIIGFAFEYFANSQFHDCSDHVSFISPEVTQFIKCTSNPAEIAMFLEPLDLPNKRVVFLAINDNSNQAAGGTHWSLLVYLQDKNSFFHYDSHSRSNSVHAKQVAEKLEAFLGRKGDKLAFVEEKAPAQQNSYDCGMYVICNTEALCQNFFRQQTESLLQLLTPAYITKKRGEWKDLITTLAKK

[10] = target: T5, Sentrin-specific protease 8; assay type: functional; remark: listed apart in the source
P388/ADR = assay: cells; assay type: functional; conditions: Mus musculus
[11] = target: T6, DNA repair protein RAD52 homolog (Homo sapiens, UniProt P43351); assay type: functional, biochemical
T6 sequence (P43351 whole entry): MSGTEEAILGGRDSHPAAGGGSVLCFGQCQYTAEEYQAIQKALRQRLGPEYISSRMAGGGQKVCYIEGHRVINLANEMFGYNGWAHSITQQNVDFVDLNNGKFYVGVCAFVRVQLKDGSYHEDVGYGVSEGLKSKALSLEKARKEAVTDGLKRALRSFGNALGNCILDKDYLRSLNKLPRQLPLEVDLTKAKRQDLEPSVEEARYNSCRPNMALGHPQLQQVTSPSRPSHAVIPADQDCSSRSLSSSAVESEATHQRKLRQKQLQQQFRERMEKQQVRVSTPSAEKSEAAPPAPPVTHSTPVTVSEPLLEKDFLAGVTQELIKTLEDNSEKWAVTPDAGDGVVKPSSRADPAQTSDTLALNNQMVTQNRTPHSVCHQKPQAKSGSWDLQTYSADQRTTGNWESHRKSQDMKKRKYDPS

[12] = HeLa 4N DNA content increase, dose response, cell-based, IC50 (AID 1117351); assay type: functional

SMILES: COc1ccc(C(=O)CC(=O)C(=O)Nc2ccc(Cl)cc2)cc1
- EC50 [2]: 1.74 µM (active)

SMILES: O=C(CBr)Nc1ccc(Cl)cc1C(=O)c1ccccc1F
- IC50 [3]: > 40 µM (inactive)
- IC50 [4]: > 33.3 µM (inactive)
- IC50 [5]: > 40 µM (inactive)

SMILES: COc1ccc2cc3[n+](cc2c1OC)CCc1cc2c(cc1-3)OCO2 [BERBERINE CHLORIDE]
- GI50 (P388): 1.87 µM (inactive)
- GI50 (SN12K1): 3.93 µM (inactive)
- IC50 [8]: > 10 µM (inactive)
- AC50 (INS1): 3.25 µM (active)
- IC50 [9]: 7.66 µM (active)
- IC50 [10]: > 100 µM (inactive)
- GI50 (P388/ADR): 102 µM (inactive)
- AC50 [11]: 2.38 µM (active) and 5.69 µM (active)
- IC50 [12]: > 10 µM (inactive)

Continued, values first:

- IC50 [1]: > 100 µM (not active)
SMILES: Cc1cc(C)cc(OCCCCCNCCO)c1

- IC50 (NADPH oxidase 1): > 20 µM (not active)
SMILES: CN1c2ccccc2Sc2cc(C(=O)c3ccc(N=[N+]=[N-])cc3)ccc21

- IC50 (14-3-3 protein gamma): > 50 µM (not active)
SMILES: CCOC(=O)N1CCC(NC(=O)CSCc2nc(-c3ccc(OC)c(OC)c3)oc2C)CC1

- IC50 [6]: > 100 µM (active)
- IC50 [7]: 56.1 µM (active)
- IC50 (Leucine aminopeptidase): 35.2 µM (active)
SMILES: COc1ccc2c(c1OC)C(=O)OC2CC(=O)c1ccc(O)c(O)c1 (centres undefined)
